Measurements taken from paper PMC9623576, “Semisynthesis and Evaluation of Anti-Inflammatory Activity of the Cassane-Type Diterpenoid Taepeenin F and of Some Synthetic Intermediates” (Journal of Natural Products, 2022).
“Also recorded” adds a separate entry of the source.

What was measured:
B16-F10 cells [1] = assay: Mitochondrial membrane potential, Rh123/PI flow cytometry; assay type: cell-based, murine; conditions: B16-F10, 72 h; for changes in mitochondrial membrane potential (MMP): IC50 and IC80 concentrations, Rh123/IP
Source text: In addition, the loss of part of MMP can be related to the secondary activation of the intrinsic apoptotic pathway as a final event in the extrinsic apoptosis mechanism. Further molecular studies will be necessary to confirm these conclusions.
The electrochemical gradient across the mitochondrial membrane was investigated by analytical flow cytometry, using dihydrorhodamine (DHR). DHR is oxidized in contact with living cells, forming a highly fluorescent product called rhodamine (Rh 123). The emitted fluorescence can be monitored by fluorescence spectroscopy using excitation and emission wavelengths of 500 and 536 nm, respectively.[37]−[39] […] After treatment, the culture medium was renewed by adding fresh medium with DHR to a final concentration of […]. Cells were incubated for 1 h at 37 °C in an atmosphere of 5% CO2 and 95% humidity and subsequently washed and resuspended in PBS with 5 μg/mL of PI. The fluorescence intensity was measured using a FACScan flow cytometer (fluorescence-activated cell sorter). The experiments were performed three times with two replicates per assay.

B16-F10 cells [2] = assay: Annexin V-FITC/propidium iodide apoptosis flow cytometry; assay type: cell-based, murine; conditions: for apoptotic effect: B16-F10, after 24 h of treatment
Source text: Cytometric FACS analysis using annexin V-FITC and PI staining was used to differentiate four cell populations (Figure 5): normal cells (annexin V^– and PI^–), early apoptotic cells (annexin V^+ and PI^–), late apoptotic cells (annexin V^+ and PI^+), and necrotic cells (annexin V^– and PI^+).[33]
To confirm the proapoptotic effect of compounds 16 and 22, annexin V and PI double staining was detected with flow cytometry. An early indicator of apoptosis is the translocation of the membrane phospholipid phosphatidylserine from the cytoplasmic interface to the external surface of the plasmatic membrane. The phospholipid phosphatidylserine that accumulates on the external plasmatic membrane can be detected by annexin V/PI is a fluorescent dye that binds to the nuclei of dead cells. Apoptosis was assessed by flow cytometry using a FACScan (fluorescence-activated cell sorter) flow cytometer (Coulter Corporation, Hialeah, FL, USA).[37],[38] For this assay, 5 × 10^4 B16-F10 cells were plated in 24-well plates with 1.5 mL of medium and incubated for 24 h. […] Cells were collected and resuspended in a binding buffer (10 mM HEPES/NaOH, pH 7.4, 140 mM NaCl, 2.5 mM CaCl2). Annexin V-FITC conjugate (1 μg/mL) was then added and incubated for 15 min at room temperature in darkness. Just before the analysis by flow cytometry, cells were stained with 5 μL of 1 mg/mL PI solution. In each experiment, approximately 10 × 10^3 cells were analyzed, and the experiment was duplicated twice.

[3] = tested on: HepG2 human hepatocarcinoma cells; assay: MTT cancer cell proliferation assay, HepG2; assay type: cell-based; conditions: Homo sapiens, HepG2, 72 h, MTT; for IC50: read-out: IC50; for IC20: read-out: IC20
Method: The five newly synthesized diterpenoids were evaluated for their cytotoxic effects against three selected tumor cell lines, B16-F10 murine melanoma cells, HT29 human colon adenocarcinoma cells, and HepG2 human hepatocarcinoma cells at increasing concentrations (0–100 μg/mL). After 72 h of treatment, cell viability was determined by an MTT assay, where the tetrazolium dye was transformed into formazan in the mitochondria of viable cells, its absorbance measured at 570 nm and expressed as a percentage with respect to untreated control cells (S3 Figure.). The concentrations required for 20, 50, and for 80% growth inhibition (IC20, IC50, and IC80) were also determined for each compound (Table 2).
A stock solution was frozen and stored at […]. Before the experiments, this solution was diluted in cell-culture medium to the adequate concentrations for each experiment. […] For nitrite assay, subcytotoxic concentrations (3/4IC50, 1/2IC50, and 1/4IC50), were used to ensure that the NO inhibitory potential was not due to a possible cytotoxic effect. The concentrations of 3/4IC50, 1/2IC50, and 1/4IC50 were used for the cell-cycle analysis. All experiments were measured and compared with control (untreated cells after 24, 48, or 72 h of treatment.)
Human colorectal adenocarcinoma cell line HT29 (ECACC no. 9172201; ATCC no. HTB-38), human hepatocarcinome cell line HepG2 (ECACC no. 85011430), mouse melanoma cells B16-F10 (ATCC no. CRL-6475), and murine monocyte/macrophage-like RAW 264.7 cell line (ATCC no, TIB-71) were cultured in DMEM (Dulbecco’s modified Eagle’s medium) supplemented with 2 mM glutamine, 10% heat-inactivated FCS (fetal calf serum), 10 000 units/mL of penicillin and 10 mg/mL of streptomycin, (for all cancer cell lines), 50 μg/mL of gentamicin (only for RAW 264.7 cell line), and incubated at 37 °C, in an atmosphere of 5% CO2 and 95% humidity. The culture media were changed every 48 h, and the confluent cultures were separated with a trypsin solution (0.25% EDTA). In all experiments, monolayer cells were grown to 80–90% confluence, in sterile cell culture flasks. All cell lines used were purchased from the cell bank of the University of Granada, Spain.
The cytotoxicity assay was performed by the MTT (3-(4,5-dimethylthiazol-2-yl)-2,5-diphenyltetrazolium bromide) method.[21] To quantify the cytotoxicity of compounds, the fresh and suspended cells were seeded in 96-well plates to a volume of 100 μL at 6.0 × 10^3 cells/mL for HT29 and RAW 264.7 cell lines, at 5.0 × 10^3 cells/mL for B16-F10 cells and 15.0 × 10^3 for Hep G2. Then, cells were incubated to adhere over 24 h at 37 °C with 5% CO2. All tested compounds were prepared in fresh growth medium. After 24 h, an additional 100 μL of medium with the corresponding concentrations of products (only medium in the control wells) was added to the corresponding wells, at various final concentrations (0–100 μg/mL). Finally, after 72 h of incubation at 37 °C with 5% CO2, the medium with the compounds were removed and 100 μL of MTT solution (0.5 mg/mL) in 50% of PBS 50% of medium was added to each well. After 1.5 h of incubation, formazan was resuspended in 100 μL of DMSO, and each concentration was tested in triplicate. Relative cell viability, with respect to untreated control cells, was measured by absorbance at 570 nm on an ELISA plate reader (Tecan Sunrise MR20-301, TECAN, Austria).
Cytotoxicity experimental data were fitted to a sigmoidal function (y = ymax/(x/a)^−b) by nonlinear regression. […] These analyses were performed using SigmaPlot 12.5 software. Similar analyses were performed to obtain the IC50 of NO production. All data shown here are representative of at least two independent experiments performed in triplicate. All quantitative data were summarized as the mean ± standard deviation (SD).

[4] = B16-F10, 48 h, IC50 concentration
[5] = B16-F10, 48 h, IC80 concentration
[6] = B16-F10, 72 h, IC50 concentration
[7] = B16-F10, 72 h, IC80 concentration

Row | SMILES | changes in mitochondrial membrane potential (MMP) (B16-F10 cells [1]) | early apoptosis (Q4, annexin V+ PI-) (B16-F10 cells [2]; [4]) [%] | late apoptosis (Q2, annexin V+ PI+) (B16-F10 cells [2]; [4]) [%] | total apoptosis (B16-F10 cells [2]; [4]) [%] | early apoptosis (Q4, annexin V+ PI-) (B16-F10 cells [2]; [5]) [%] | late apoptosis (Q2, annexin V+ PI+) (B16-F10 cells [2]; [5]) [%] | total apoptosis (B16-F10 cells [2]; [5]) [%] | early apoptosis (Q4, annexin V+ PI-) (B16-F10 cells [2]; [6]) [%] | late apoptosis (Q2, annexin V+ PI+) (B16-F10 cells [2]; [6]) [%] | total apoptosis (B16-F10 cells [2]; [6]) [%] | early apoptosis (Q4, annexin V+ PI-) (B16-F10 cells [2]; [7]) [%] | late apoptosis (Q2, annexin V+ PI+) (B16-F10 cells [2]; [7]) [%] | total apoptosis (B16-F10 cells [2]; [7]) [%] | apoptotic effect (B16-F10 cells [2]) | IC50 [3] [µM] | IC20 [3] [µM] | population of Rh123 negative cells versus control untreated cells (B16-F10 cells [1]; IC80 concentration) | IC80 [3] [µM]
1 | COC(=O)[C@]1(C)CCC[C@@]2(C)[C@H]1CC=C1C(C)=C(C(C)C)C(=O)C[C@@H]12 [Compound 16, (1R,4aR,10aR)-Methyl 7-isopropyl-1,4a,8-trimethyl-6-oxo-1,2,3,4,4a,4b,5,6,10,10a-decahydrophenanthrene-1-carboxylate] | did not cause any loss of the mitochondrial membrane potential; also recorded: did not produce any changes in MMP | 3.73 | 9.40 | 13.13 | 12.06 | 14.53 | 26.6 | 0.06 | 7.63 | 7.7 | 27.63 | 21.13 | 48.76 | did not exert a significant effect | 18.5 ± 4.73 | 5.05 ± 2.74 | – | –
2 | COC(=O)[C@]1(C)CCC[C@]2(C)c3cc(O)c(C=O)c(C)c3CC[C@@H]12 [Compound 21, (1R,4aS,10aR)-Methyl 7-formyl-6-hydroxy-1,4a,8-trimethyl-1,2,3,4,4a,9,10,10a-octahydrophenanthrene-1-carboxylate] | partial loss of the MMP | 6.93 | 18.30 | 25.23 | 5.73 | 27.13 | 32.86 | 5.33 | 17.03 | 22.36 | 23.56 | 17.66 | 41.23 | did not exert a significant effect | 37.9 ± 5.4 | 33.2 ± 8.64 | higher | 45.3 ± 0.9
